Data from patent publication US4293713A, “Novel 1,1,3,5-substituted biuret compound and a pharmaceutical composition containing the same” (priority 1979, dated 1981).
Like-named read-outs stand apart in the source and are kept apart here.

Tests used:
ddy strain of male mice [1] = assay: Acute toxicity (oral, 7 days observation); type: in vivo; conditions: oral, mice, 7 days
Protocol: (§1) Next, several tests for determining the pharmacological properties, in that acute toxicity, anti-pyretic activity, analgesic activity and anti-inflammatory activity of the present 1,1,3,5-substituted biuret compounds of the formula (1) were conducted and the test results are shown in Table (2). In the tests, each compounds to be tested was used as a suspension in 0.25% carboxymethylcellulose solution. Methods for testing are explained as follows:
The ddy strain of male mice (body weight, 20-25 g) were used as test animals. The mice were fasted overnight and the compound to be tested was administered orally. […] The lethal dose (mg/kg, body weight) of the test compound was determined in connection with the death number of mice/the number of mice tested. In Table 2, the values indicated with Δ marks are 50% lethal dose, LD50 (mg/kg, body weight).

[2] = system: Wistar strain of male rats; assay: Anti-pyretic activity (dry-yeast induced fever); type: in vivo, rat (Wistar strain; conditions: oral, up to 4 hours after administration, dose not given
Protocol: as §1
According to the method reported by Tanabe [Folia Pharmacologia Japonica, Vol. 73, pp. 803 (1977)], the Wistar strain of male rats (150-180 g body weight) were used as test animals. The rats were fasted overnight, and 1 ml/100 g (body weight) of 10% dry-yeast suspension were subcutaneously injected on the back of the rats. Five hours after the injection, the test compound was administered orally, then the body temperature of the rat was measured at time sequences. Anti-pyretic activity of the test compound was determined as the FI (febril index) by integrating pyrogenetic curve up to 4 hours after the administration of the test compound with time, and indicated as inhibitory ratio (%) shown by the following formula, [formula]

ddy strain of male mice [3] = assay: Analgesic activity, acetic acid-induced stretching method; type: in vivo, mouse (ddy strain; conditions: Mus musculus; for inhibition in vivo at 100 mg/kg / inhibition in vivo at 60 mg/kg: read-out: Analgesic activity, acetic acid-induced stretching method, inhibitory ratio; for ED50: read-out: Analgesic activity, acetic acid-induced stretching method, 50% effective dose, ED50 (values with Δ marks)
Protocol: as §1
According to the method reported by Koster et al., [Fed. Proc., Vol. 18, pp. 412 (1959)], the ddy strain of male mice (body weight, 20-25 g) were used as test animals. The mice were fasted overnight, 100 mg/kg body weight of the test compound was administered orally, then 1 hour after the administration, 0.2 ml of 0.7% acetic acid solution was injected intraperitoneally. The acetic acid-induced stretching symptom of mouse was observed. Analgesic activity of the test compound was calculated as the inhibitory ratio (%). In Table 2, the values in Parentheses show the data obtained from the test by using the dosage other than 100 mg/kg body weight. Further, the values indicated with Δ marks show 50% effective dose, ED50 (mg/kg body weight).

ddy strain of male mice [4] = assay: Analgesic activity, Haffner method; type: in vivo, mouse (ddy strain; conditions: with threshold morphine hydrochloride s.c.
Protocol: as §1
According to the modified method reported by Fujimura et al., [Bulletin of the Institute for Chemical Research, Kyoto University, No. 25, pp. 36 (1951)], the ddy strain of male mice (body weight, 20-25 g) were used as test animals. The mice were fasted overnight, 100 mg/kg body weight of the test compound was administered orally, then 45 minutes after the administration, the threshold amount (1.5-2.5 mg/kg body weight) of morphine hydrochloride was injected subcutaneously. Then 1-hour pain reaction of the mouse caused by a clamp was observed. Analgesic activity of the test compound was calculated as the inhibitory ratio (%). In Table 2, the values in parentheses show the data obtained from the test by using the dosage other than 100 mg/kg body weight. Further, the values indicated with Δ marks show 50% effective dose, ED50 (mg/kg body weight).

[5] = system: Wistar strain of male rats; assay: Anti-inflammatory activity, acute carrageenin-induced inflammatory test; type: in vivo, rat (Wistar strain; conditions: Rattus norvegicus
Protocol: as §1
According to the method of acute carrageenin-induced inflammatory test [Folia Pharmacologia Japonica, Vol. 56, pp. 575 (1960)], the Wistar strain of male rats (body weight, 150-180 g) were used as test animals. The rats were fasted overnight, 100 mg/kg body weight of the test compound was administered orally, then 1 hour after the administration, 0.1 ml of 1% carrageenin solution, as the inflammation inducing agent, was injected subcutaneously to the hindpaw of the rat and the volume of the hindpaw was measured at time sequences. Anti-inflammatory activity of the test compound was calculated as inflammation inhibitory ratio (%) at 3 hours after the injection of the inflammation inducing agent.

[6] = po, 3 h, read-out: Anti-inflammatory activity, inflammation inhibitory ratio
[7] = po, 2 h, read-out: Anti-inflammatory activity, inflammation inhibitory ratio (2 hours value)

Row | SMILES | Acute toxicity, death number of mice/number of mice tested (ddy strain of male mice [1]; 1000 mg/kg) | Acute toxicity, death number of mice/number of mice tested (ddy strain of male mice [1]; 2000 mg/kg) | Anti-pyretic activity, inhibitory ratio of febril index (FI) [2] | inhibition in vivo at 100 mg/kg (ddy strain of male mice [3]; po) | Analgesic activity, Haffner method, inhibitory ratio (ddy strain of male mice [4]; 100 mg/kg oral) | also measured
1 | CN(C)C(=O)N(C)C(=O)Nc1ccccc1F [Compound No. 2, 1,1,3-Trimethyl-5-(2-fluorophenyl)biuret] | 1/4 | 4/4 | 76% | 62.5% | 75% | inhibition in vivo at 100 mg/kg ([5]; 100 mg/kg oral, rats, 3 hours after carrageenin, read-out: Anti-inflammatory activity, inflammation inhibitory ratio): 63%
2 | COc1cc(NC(=O)N(C)C(=O)N(C)C)cc(OC)c1OC [Compound No. 19, 1,1,3-Trimethyl-5-(3,4,5-trimethoxyphenyl)biuret] | 2/4 | – | 23% | – | 62.5% | Acute toxicity, death number of mice/number of mice tested (ddy strain of male mice [1]; 500 mg/kg): 0/4; ED50 (ddy strain of male mice [3]; oral, mice, range in parentheses): 38 mg/kg; inhibition in vivo at 100 mg/kg [5, 6]: 30%
3 | Cc1ccc(NC(=O)N(C)C(=O)N(C)C)cc1 [Compound No. 22, 1,1,3-Trimethyl-5-(4-methylphenyl)biuret] | – | 0/4 | 52% | – | – | ED50 (ddy strain of male mice [3]; po): 33 mg/kg; Analgesic activity, Haffner method, 50% effective dose, ED50 (values with Δ marks) (ddy strain of male mice [4]; oral, range in parentheses): 80(42-152) mg/kg; inhibition in vivo at 100 mg/kg [5, 7]: 23%
4 | Cc1ccc(NC(=O)N(C)C(=O)N(C)C)cc1C [Compound No. 25, 1,1,3-Trimethyl-5-(3,4-dimethylphenyl)biuret] | – | 1/4 | 31% | – | – | inhibition in vivo at 60 mg/kg (ddy strain of male mice [3]; 60 mg/kg oral, mice): 87.5%
5 | CCCN(C)C(=O)N(C)C(=O)Nc1ccccc1 [Compound No. 34, 1,3-dimethyl-1-propyl-5-phenylbiuret] | 1/4 | 4/4 | 44% | – | 37.5% | inhibition in vivo at 60 mg/kg (ddy strain of male mice [3]; po): 75%; inhibition in vivo at 100 mg/kg [5, 7]: 26%
6 | CN(C)C(=O)N(C)C(=O)Nc1ccc(Cl)cc1Cl [compound 8, 1,1,3-Trimethyl-5-(2,4-dichlorophenyl)biruet] | 0/4 | 3/4 | 42% | 50% | 75% | –
7 | CN(C)C(=O)N(C)C(=O)Nc1ccc(Cl)c(Cl)c1 [compound 10, 1,1,3-Trimethyl-5-(3,4-dichlorophenyl)biuret] | 1/4 | 3/4 | 43% | 50% | 62.5% | –
8 | COc1ccc(NC(=O)N(C)C(=O)N(C)C)cc1OC [compound 18, 1,1,3-Trimethyl-5-(3,4-dimethoxyphenyl)biuret] | 0/4 | 4/4 | 18% | 75% | 62.5% | –
9 | Cc1cccc(NC(=O)N(C)C(=O)N(C)C)c1C [compound 23, 1,1,3-Trimethyl-5-(2,3-dimethylphenyl)biuret] | 1/4 | 4/4 | 40% | – | 25% | inhibition in vivo at 100 mg/kg (ddy strain of male mice [3]; 100 mg/kg oral, mice): 50%
10 | Cc1c(Cl)cccc1NC(=O)N(C)C(=O)N(C)C [compound 26, 1,1,3-Trimethyl-5-(2-methyl-3-chlorophenyl)biuret] | 1/4 | 4/4 | 45% | 75% | 25% | –
11 | CSc1ccc(NC(=O)N(C)C(=O)N(C)C)cc1 [compound 28, 1,1,3-Trimethyl-5-(4-methylthiophenyl)biuret] | 0/4 | 4/4 | – | 50% | – | –
12 | CCN(C(=O)Nc1ccccc1)C(=O)N(C)C [compound 30, 1,1-Dimethyl-3-ethyl-5-phenylbiuret] | 0/4 | 3/4 | 12% | 62.5% | – | inhibition in vivo at 100 mg/kg [5, 6]: 23%
13 | CCCN(C(=O)Nc1ccccc1)C(=O)N(C)C [compound 31, 1,1-Dimethyl-3-n-propyl-5-phenylbiuret] | – | 0/4 | 12% | 37.5% | – | Analgesic activity, Haffner method, inhibitory ratio (ddy strain of male mice [4]; 200 mg/kg oral): 62.5%
14 | CCCCN(C(=O)Nc1ccccc1)C(=O)N(C)C [compound 32, 1,1-Dimethyl-3-n-butyl-5-phenylbiuret] | 0/4 | 3/4 | 18% | 37.5% | 31% | –
15 | CCCCN(C)C(=O)N(C)C(=O)Nc1ccccc1 [compound 35, 1-n-Butyl-1,3-dimethyl-5-phenylbiuret] | 0/4 | 3/4 | 35% | 37.5% | 25% | –
